Experimental data published in the supplement of paper PMC8671470.

Experiments:
Assay in all cases: cell viability (% survival relative to DMSO control); higher = less cytotoxic
Settings in all cases: 72 h
[1] = tested on: myeloid leukemia patient primary cells Pat.4
Outline: (§1)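 Seventy compounds were pre-printed on 384-well plates at five tenfold concentrations between 1 and 10,000 nM, in duplicate. Thawed mononuclear cells purified by Ficoll from AML or CML patients were added at 10,000 cells/well in RPMI 1640 with 10% FBS for 72 h. Viability by CellTiter-Glo was normalised to DMSO and 10 μM proteasome-inhibitor wells. Where stated, area under the curve was taken from log-logistic fits made with the drc and PharmacoGx R packages, each fit having four parameters.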

[2] = tested on: myeloid leukemia patient primary cells Pat.12
Outline: as §1

[3] = tested on: myeloid leukemia patient primary cells Pat.3
Outline: as §1

[4] = tested on: myeloid leukemia patient primary cells Pat.13
Outline: as §1

SMILES | cell viability ([1]; 1 nM) [%] | cell viability ([1]; 10 nM) [%] | cell viability ([1]; 100 nM) [%] | cell viability ([1]; 1000 nM) [%] | cell viability ([1]; 10000 nM) [%] | cell viability ([2]; 1 nM) [%] | cell viability ([2]; 10 nM) [%] | cell viability ([2]; 100 nM) [%] | cell viability ([2]; 1000 nM) [%] | cell viability ([2]; 10000 nM) [%] | cell viability ([3]; 1 nM) [%] | cell viability ([3]; 10 nM) [%] | cell viability ([3]; 100 nM) [%] | cell viability ([3]; 1000 nM) [%] | cell viability ([3]; 10000 nM) [%] | cell viability ([4]; 1 nM) [%] | cell viability ([4]; 10 nM) [%] | cell viability ([4]; 100 nM) [%] | cell viability ([4]; 1000 nM) [%] | cell viability ([4]; 10000 nM) [%]
CC12CCC(O)CC1CCC1C2CCC2(C)C(C3=CC(=O)OC3)CCC12O (stereo not given) [Digitoxigenin] | 89.8 | 81.8 | 81.6 | 5.88 | 1.81 | 97.4 | 96 | 94.2 | 58.7 | 16.8 | > 100 | 90 | 16.6 | 0.964 | 1.87 | > 100 | 64.8 | 91.8 | 15 | 4.96
Cc1noc2c1-c1ccccc1C(c1ccc(Cl)cc1)=N[C@H]2CC(N)=O [CPI-0610] | 82.5 | 65.6 | 58.1 | 6.43 | 7.38 | 96.7 | 90.2 | 98.4 | 82.8 | 80.9 | > 100 | 79.3 | 68.4 | 22.7 | 15.6 | 90.2 | 95.2 | 87.3 | 52.2 | 46.9
Sc1ncnc2nc[nH]c12 [6-mercaptopurine] | 79.1 | 80 | 85.9 | 88.2 | 92.3 | > 100 | 95.9 | 93.6 | 97.3 | > 100 | 94.8 | 97.6 | 44.2 | 35.1 | 16.3 | 79.6 | 88.3 | 84.9 | 84.9 | 93.2
C[C@]12O[C@H](C[C@]1(O)CO)n1c3ccccc3c3c4c(c5c6ccccc6n2c5c31)CNC4=O [Lestaurtinib] | 93.5 | 64.5 | 8.79 | 31.2 | 2.37 | > 100 | > 100 | 87 | > 100 | 1.77 | 90.1 | 53 | 69 | 16 | 8.21 | 89 | 46.6 | 48.2 | 57.7 | 1.29
Nc1ccn([C@@H]2O[C@H](CO)[C@@H](O)[C@@H]2O)c(=O)n1 [Cytarabine] | 87.3 | 88.5 | 75.5 | 75.1 | 5.31 | 96.3 | 94.1 | > 100 | 97.1 | 67.7 | > 100 | 39.5 | 46.5 | 11.6 | 5 | 91.9 | 68.8 | 85.2 | 60.1 | 9.9
COc1c(C)c2c(c(O)c1C/C=C(\C)CCC(=O)O)C(=O)OC2 [Mycophenolic acid] | 88.4 | 95 | 76.3 | 89.2 | 32.9 | > 100 | > 100 | 85.9 | > 100 | 80.5 | 65.5 | 81.3 | 99.4 | 56.5 | 47.4 | 61 | 90.7 | 73.5 | 68.1 | 63.1
CCN(CC)CCN(Cc1ccc(-c2ccc(C(F)(F)F)cc2)cc1)C(=O)Cn1c(SCc2ccc(F)cc2)nc(=O)c2c1CCC2 [Darapladib] | 73.2 | 84.2 | 67.9 | 83 | 0.925 | 94.6 | 97.5 | 85.3 | 92.2 | < 0 | 81.4 | 90.8 | 70.5 | 54.4 | < 0 | 74.1 | 80.5 | 74.2 | 71.2 | < 0
CCOC(=O)N1c2ccc(C(F)(F)F)cc2[C@@H](N(Cc2cc(C(F)(F)F)cc(C(F)(F)F)c2)C(=O)OC)C[C@H]1CC [Torcetrapib] | 86.9 | 86 | 74.1 | 97 | 56.7 | 93.2 | 82.7 | 94.3 | 89.7 | 79 | 97 | 62.9 | 95.2 | 88.7 | 22.4 | > 100 | 71.5 | 92.1 | 81.1 | 48.2
CC(Cc1ccc(O)c(O)c1)C(C)Cc1ccc(O)c(O)c1 (stereo not given) [Masoprocol] | 77.7 | 91.8 | > 100 | 81.8 | 19.3 | 91.2 | 96.6 | 98.3 | 89 | 35.1 | 90.1 | 91.5 | 80.4 | 35.8 | 5.51 | 93.2 | 97.5 | 98.5 | 70.5 | 56.2
Clc1ccc(COC(Cn2ccnc2)c2ccc(Cl)cc2Cl)cc1 (stereo not given) [Econazole] | 88 | 94.6 | 81.7 | 88.5 | 74.9 | 89.2 | 94.9 | 95.7 | 96.5 | 90.3 | 74.2 | 89.5 | 93 | 70.1 | 1.03 | 77.8 | 95 | 70.2 | 75 | 60.6
C[C@H]1O[C@@H](O[C@H]2[C@@H](O)C[C@H](O[C@H]3[C@@H](O)C[C@H](O[C@H]4CC[C@@]5(C)[C@H](CC[C@@H]6[C@@H]5C[C@@H](O)[C@]5(C)[C@@H](C7=CC(=O)OC7)CC[C@]65O)C4)O[C@@H]3C)O[C@@H]2C)C[C@H](O)[C@@H]1O [Digoxin] | 93 | 76.1 | 67.4 | 3.24 | 4.37 | 94.2 | 95 | 85.5 | 41.7 | 12.6 | 94.1 | 81.3 | 11.5 | 2.91 | 1.13 | 95.8 | 99 | 88.5 | 5.75 | 3.42
